# Patent US20240009203A1, “COMPOSITIONS AND METHODS FOR TREATING ALZHEIMER'S DISEASE” (Cedars-Sinai Medical Center, priority 2020, published 2024)
# Experiments:
# [1] = tested on: ADtg mice; test: Y-maze test; format: in vivo
# [2] = tested on: ADtg mice; test: Visual X maze (visual stimuli X-maze), color mode; format: in vivo
# Procedure: (§1) Wildtype and ADtg mice (18 months, males and females) were treated with ETP69 or vehicle (DMSO-saline) to test the effects of ETP69 in improving cognition in a mouse model of Alzheimer's disease. On day 1, mice were treated with an injection of 10 mg/kg ETP69 of vehicle. Then starting on day 2, mice were tested in various behavioral tests, including Y-maze, visual test alternation, Open Field-Barnes Maze, and/or fear conditioning. On either day 4 or day 19 mice were sacrificed, and tissues analyzed for histone trimethylation levels, A-beta levels, immunohistochemistry (GFAP, IGF1), Spine count (Golgi-Cox staining), —Neurotrophic support and synaptic markers.
# The results of the Koronyo's Visual X Maze (color) indicate visual-cognitive memory and learning.
# (§2) The effects of single and repeated ETP69 injections in mice were tested. The experimental timeline is depicted in FIG. 8. Three parallel injection conditions were tested: a single ETP69 condition, a boosted ETP69 injection, and repeated ETP69 injections, as depicted in Table 2. The single injection mice received one injection of ETP69 or DMSO at Day 0. The mice that received a boosted injection received one injection of ETP69 or DMSO at day 0 and one injection at day 9. The mice that received repeated injections received 11 injections of ETP69 or DMSO at day 0 or day 9. Both wildtype and AD model (APP/PS1-transgenic) mice were tested.
# (§3) FIG. 10A-10D depicts the results of the mice on the color mode of the visual stimuli X-maze test. […] FIG. 10E-10F depict the results of the contrast mode of the visual stimuli X-maze test.
# (§4) The effects of ETP69 injections in 14 month old mice was tested. Wildtype mice were divided into 2 treatment groups, mice that received an ETP69 injection (n=10) and mice that received a DMSO injection (N=10). AD+ mice were divided into 2 treatment groups, mice that received an ETP69 injection (n=8) and mice that received a DMSO injection (N=7). The experimental protocol is depicted in FIG. 15.
# Mice were tested for visual-cognitive memory and learning using a visual X maze.
# (§5) 18 month old wildtype and AD+ mice were administered an oral dose of 50 mg/kg ETP69 or oraB once a day for 4 weeks. The experimental protocol is depicted in FIG. 23.
# On day 1, the mice were tested in the open field test as depicted in FIG. 24A. Rearing and total locomotor activity were measured in mice administered oraB and ETP69 (FIG. 24B-24G). On day 2, mice were tested in the color visual-stimuli X-maze. […] On day 3, mice were tested in the contrast visual-stimuli X-maze. Results are depicted in FIG. 26A-26E.
# [3] = tested on: AD+ mice; test: Visual stimuli X-maze, contrast mode; format: in vivo; settings: 18 mo, i.p. 10 mg/kg, contrast mode (FIG. 10E-10F)
# Procedure: as §2, §3
# [4] = tested on: ADtg mice; test: Open Field-Barnes Maze test; format: in vivo
# Procedure: as §1
# The results of the Open Field-Barnes Maze test indicate hippocampal-based spatial learning and memory.
# as §2
# The results of the Open Field Barnes Maze test indicate hippocampal-based spatial memory and learned. […] A comparison of results of single (S), boost (B) and repeated (R) injections is depicted in FIG. 11D-11H.
# as §5
# On days 4-7 mice were tested on the training phase of the Barnes Maze (FIG. 27A). On day 10, mice were tested on the retention phase. On days 11-12, mice were tested on the reversal phase. Results are depicted in FIG. 27B-27E.
# [5] = tested on: ADtg mice; test: Fear conditioning test; format: in vivo
# Procedure: as §1
# The results of the fear conditioning test indicate spatial memory.
# as §2, §4
# The fear conditioning test was used to indicate spatial memory.
# [6] = tested on: dendritic spines; test: Golgi-Cox staining of brain sections (dendritic spines); format: in vivo, mice
# Procedure: as §1
# […] which bind to proteins in the neuron are randomly formed during the impregnation, then transformed to black mercuric sulfide deposits upon alkali treatment (Ramón-Moliner, 1970; Špaček, 1989; Rosoklija et al., 2014). The architecture of the impregnated neuron, including cell somas, axons, dendrites and spines, could be easily visualized. It is expected that qualitative observations by these measures of brains from ADtg mice treated with ETP69 will show higher spine density as compared to brains of DMSO-injected control ADtg mice. FIG. 7A-7D include Golgi-Cox stain images of whole neurons and their dendritic projections.
# The right brain hemispheres of 18 month old mice were stained with the Golgi-Cox method to detect the cytoarchitecture and morphology of neurons. FIG. 13A depicts representative images of the cingulate cortex of mice administered DMSO or ETP69 and FIG. 13B depicts a representative image of the hippocampal area of a mouse treated with ETP69.
# [7] = tested on: H3K9me3; test: H3K9me3 brain staining and quantification; format: in vivo, mice
# Excerpt: (§6) 18 month old AD+ mice brains were stained for neuronal H3K9me3 and DAPI. FIG. 14A is a representative image of the H3K9me3 signal across cortical layers. FIG. 14B is a representative image comparing ETP69 treated and DMSO control brains. […] FIG. 14D depicts immunohistochemistry of 6E10+ amyloid-beta plaques and GFAP+ astrogliosis in coronal sections of AD+ mice treated with ETP69 or DMSO.
# [8] = tested on: 6E10+ amyloid-beta plaques; test: Immunohistochemistry of 6E10+ amyloid-beta plaques; format: in vivo, mice
# Excerpt: as §6, with “FIG.” for “18 month old AD+ mice brains were stained for neuronal H3K9me3 and DAPI. FIG.”
# [9] = tested on: GFAP; test: GFAP+ astrogliosis (immunohistochemistry, western blot); format: in vivo, mice
# Excerpt: as §6
# [10] = tested on: Iba1; test: Iba1 immunohistochemistry; format: in vivo; settings: 14 month old AD+ mice, compared to untreated AD+ mice (FIG. 18E)
# [11] = tested on: cerebral macrophages, microglia, and astrocytes; test: Effects on cerebral inflammatory cells (FIG. 21A-21L); format: in vivo; settings: AD+ mice (FIG. 21A-21L)
# Excerpt: These phagocytic inflammatory cells may be involved in immune activation and clearing toxic Aβ. Restoring a young phenotype may explain reduced neuroinflammation and Aβ plaques in the ETP69 treated AD+ mice.
# [12] = tested on: global proteome; test: Global proteome mass spectrometry analysis of brains; format: in vivo, mice
# Excerpt: Overall, the experiments in these examples from multiple cohorts of 14- and 18-month-old murine models of AD (AD+ mice) and age/gender-matched control mice provide support that by inhibiting the enzyme SUV39H1 that regulates H3K9me3 via ETP69 compound (AKA NT1721), the chromatin state of subjects may be altered, and memory and synaptic plasticity may be restored in aging and AD brains. The therapeutic usefulness of ETP69 has been shown in the experiments described in these examples, in both aged WT mice and the well-established transgenic mouse models of AD (APPSWE/PS1ΔE9, AD+ mice), following a single (S), a boost (B), or once a week repeated (R) i.p. injections of ETP69. […] Additionally, in investigation of whole proteome profiles by mass spectrometry identified some mechanisms of action for ETP69 in the aged WT and AD+ mice.
# (§7) FIGS. 19A, 19B, and 20 include global proteome data from a mass spectrometry analysis. […] Some of these proteins, such as HPX, may be involved in anti-oxidative-stress or anti-inflammatory pathways.
# [13] = tested on: BDNF pathway; test: Ingenuity pathway analysis of proteome data, BDNF pathway; set-up: species or system mice; settings: FIG. 19B, p<0.0001
# Excerpt: as §7
# [14] = tested on: proteins related to learning, cognition, conditioning, anxiety; test: Ingenuity analysis of behavioral pathways; set-up: species or system mice; settings: FIG. 20
# Excerpt: as §7
# [15] = tested on: BDNF; test: BDNF expression in hippocampus; format: in vivo; settings: dentate gyrus and other hippocampal regions, 18-mo-old AD-Tg mice, single ETP69 injection (FIG. 22)
# Procedure: (§8) Expression of VGF, BDNF, and NCAM was analyzed in 18-month AD+ mice following a single ETP69 injection. Representative images are depicted in FIG. 22.
# [16] = tested on: VGF; test: VGF expression in hippocampus; format: in vivo; settings: dentate gyrus and other hippocampal regions, 18-mo-old AD-Tg mice, single ETP69 injection (FIG. 22)
# Procedure: as §8
# [17] = humans; cited from earlier work
# [18] = AD+ mice, 18 mo, i.p. 10 mg/kg, color mode (FIG. 10A-10D)
# [19] = ADtg mice, 18 months, injection of 10 mg/kg, compared with vehicle treated mice (FIG. 4A-4J)
# [20] = ADtg mice, 18 months, injection of 10 mg/kg, compared with vehicle treated mice (FIG. 5A-5C)
# [21] = cingulate cortex and hippocampus, 18 month old mice (FIG. 13C-13D)
compound,measurement,setting,value
"CN1C(=O)[C@@]23C[C@](C)(C#N)[C@H](c4ccc5c(c4)OCO5)N2C(=O)[C@]1(C)SS3 (racemic) [ETP69, Rac-(3S,6S,7S,8aS)-6-(benzo[d][1,3]dioxol-5-yl)-2,3,7-trimethyl-1,4-dioxohexahydro-6H-3,8a-epidithiopyrrolo[1,2-a]pyrazine-7-carbonitrile]",percent alternation,"[1]; AD+ mice, 18 mo, i.p. 10 mg/kg, vs AD+ DMSO (FIG. 9B)",significant increase
same,percent spontaneous alternation,"[1]; ADtg mice, 18 months, injection of 10 mg/kg ETP69, compared with vehicle treated mice (FIG. 3A-3B)",improvement
same,number of total entries,"[1]; both wildtype and AD+ mice, 18 mo, i.p. 10 mg/kg in DMSO, single/boost/repeated (FIG. 9A), indicates decreased locomotor activity",decreased
same,alternation,"[2]; 14 month old AD+ mice, ETP69 injection, compared to untreated mice, mode not stated (FIG. 16A-16D)",improvements
same,bidirectional movement,[2]; [18],significant increase
same,percent alternation,[2]; [18],significant increase
same,color bidirectional,[2]; [19],improvements
same,percent spontaneous alternation,[2]; [19],improvements
same,reversing cognitive dysfunction,"[2]; old mice (18 month), oral 50 mg/kg in oraB once a day for 4 weeks, color visual-stimuli X-maze (FIG. 25A-25E)",beneficial effects
same,percent alternation,[3],significant increase
same,memory retention,"[4]; AD+ mice, 18 mo, i.p. 10 mg/kg, compared to AD+ mice treated with DMSO (FIG. 11A-11C)",improvement
same,incorrect entries,[4]; [20],fewer
same,latency,[4]; [20],reduced
same,memory retention,[4]; [20],improvement
same,reversal of cognitive deficits,"[4]; old AD-model mice (18 month), oral 50 mg/kg once a day for 4 weeks, Barnes Maze (FIG. 27B-27E)",significant reversal
same,freezing time,"[5]; 14 month old AD+ mice, ETP69 injection (FIG. 17A-17B)",increase
same,freezing time,"[5]; AD+ mice, 18 mo, i.p. 10 mg/kg (FIG. 12)",increased
same,freezing time,"[5]; ADtg mice, 18 months, injection of 10 mg/kg (FIG. 6A-6B)",increased
same,association of spine preservation with errors in the Barnes maze test,"[6]; 18 month old mice, correlation (FIG. 13G)",reduced errors
same,ratio of thin spines to all spines,"[6]; AD+ mice, 18 month, compared to AD+ mice administered DMSO alone (FIG. 13E-13F)",significant increase
same,dendritic spines,[6]; [21],increase
same,thin (immature) spines,[6]; [21],increase
same,H3K9me3,"[7]; 14 month old AD+ mice, compared to untreated AD+ mice (FIG. 18B)",decrease
same,H3K9me3 staining,"[7]; 18 month old AD+ mice, cortex and hippocampus (FIG. 14C)",significant decrease
same,6E10,"[8]; 14 month old AD+ mice, compared to untreated AD+ mice (FIG. 18C)",decrease
same,decrease in the amount of 6E10 amyloid plaques,[8]; brains of 18 month old AD+ mice (FIG. 14E),42%
same,GFAP,"[9]; 14 month old AD+ mice, compared to untreated AD+ mice (FIG. 18D)",decrease
same,decrease of GFAP irradiance,"[9]; 18 month old AD+ mice, cingulate cortex (FIG. 14F)",58%
same,Iba1,[10],decrease
same,"effects on cerebral macrophages, microglia, and astrocytes",[11],dramatic effects
same,"proteins upregulated, AD+ mice treated with ETP69 compared to untreated AD+ mice","[12]; brains, FIG. 19A","VAV3, CORO2A and HPX"
same,most up-regulated proteins following ETP69 administration,"[12]; whole proteome profiles by mass spectrometry, aged WT and AD+ mice",VGF and HP/HPX
same,BDNF pathway activation Z-score,[13],2.359
same,"proteins related to conditioning, anxiety, and other behaviors",[14],inhibition
same,proteins related to learning and cognition,[14],activation
same,BDNF expression,[15],Marked increases
same,VGF expression,[16],Marked increases
same,safety and tolerability,[17],generally safe and tolerable
